Results published in patent US20240158446A1, “CYCLIC COMPOUND HAVING SELECTIVE INHIBITORY ACTION ON KRAS OVER HRAS AND NRAS” (CHUGAI SEIYAKU KABUSHIKI KAISHA, priority 2021, published 2024).
*1 amine or outer side, *2 acyl side, *3 side chain or, on linkers, in order; H or OH if unused. Where a SMILES comes first, the peptide text is derived from it. Bridges are numbered along the chain shown (N, C = ends). [ ]: non-standard residue; d: D form. The star is where a group is joined. hPhe(3-Cl-4-CF3) = N[C@@H](CCc1ccc(C(F)(F)F)c(Cl)c1)C(=O)O; NPrPhe(4-CF3) = CCCN[C@@H](Cc1ccc(C(F)(F)F)cc1)C(=O)O; X7 = CCN([C@H](C(=O)[*:2])C1CCCC1)[*:1]; NMeD = CN[C@@H](CC(=O)O)C(=O)O; NMeL = CN[C@@H](CC(C)C)C(=O)O; Morpholide = C1CN(*)CCO1; Ac4c = NC1(C(=O)O)CCC1; Sar = CNCC(=O)O

Tests used:
[1] = test system: human lung cancer strain NCI-H441; assay: cells; details: NCI-H441, 96 h, read-out: NCI-H441 IC50 (nM), NCI-H441 cell proliferation, 4 days, CellTiter-Glo;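 further: cell proliferation inhibition after four days measured by CellTiter-Glo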
[2] = target: GDP-bound HRAS wild-type protein (Homo sapiens, UniProt P01112); assay: Binding to HRAS by surface plasmon resonance (SPR), Single Cycle Kinetics; details: ratio of KD for GDP-bound HRAS wild-type protein to KD for KRAS, SPR
Chain of GDP-bound HRAS wild-type protein (P01112 whole entry): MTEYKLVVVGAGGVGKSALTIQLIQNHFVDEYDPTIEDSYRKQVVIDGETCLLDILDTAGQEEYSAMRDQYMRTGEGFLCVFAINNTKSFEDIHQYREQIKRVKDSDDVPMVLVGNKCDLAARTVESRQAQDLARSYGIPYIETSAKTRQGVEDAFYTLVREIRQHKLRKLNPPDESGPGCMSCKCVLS

[3] = target: GDP-bound NRAS wild-type protein (Homo sapiens, UniProt P01111); assay: Binding to NRAS by surface plasmon resonance (SPR), Single Cycle Kinetics; details: ratio of KD for GDP-bound NRAS wild-type protein to KD for KRAS, SPR
Chain of GDP-bound NRAS wild-type protein (P01111 whole entry): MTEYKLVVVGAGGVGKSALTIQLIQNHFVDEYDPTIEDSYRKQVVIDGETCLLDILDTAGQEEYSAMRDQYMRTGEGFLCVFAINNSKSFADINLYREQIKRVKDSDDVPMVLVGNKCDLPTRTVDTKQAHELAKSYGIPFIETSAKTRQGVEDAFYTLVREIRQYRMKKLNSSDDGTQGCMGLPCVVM

[4] = target: GDP-bound KRAS wild-type protein (Homo sapiens, UniProt P01116); assay: Binding to KRAS by surface plasmon resonance (SPR), Single Cycle Kinetics; details: SPR, Single Cycle Kinetics, GDP-bound KRAS wild-type protein; read-out: KRAS KD
Chain of GDP-bound KRAS wild-type protein (P01116 whole entry): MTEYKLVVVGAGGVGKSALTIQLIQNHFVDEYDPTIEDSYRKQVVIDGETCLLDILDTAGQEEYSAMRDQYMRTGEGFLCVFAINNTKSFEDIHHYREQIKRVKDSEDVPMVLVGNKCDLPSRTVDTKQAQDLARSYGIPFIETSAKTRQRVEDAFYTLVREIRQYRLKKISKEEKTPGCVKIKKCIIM

Compound	IC50 [1]	Kd [4]	HRAS/KRAS (KD ratio) [2]	NRAS/KRAS (KD ratio) [3]
CCO[C@@H]1C[C@H]2C(=O)NC3(CC(F)(F)C3)C(=O)N(C)[C@@H](C3CCCC3)C(=O)N(C)[C@H](CC)CC(=O)N(C)[C@@H](CC3CC3)C(=O)N[C@@H]([C@@H](C)CC)C(=O)N(C)CC(=O)N(C)[C@H]3C/C=C\CCN(C3=O)[C@@H](Cc3ccc(C(F)(F)F)cc3)C(=O)N(C)CC(=O)N[C@@H](CCc3cc(F)c(C(F)(F)F)c(F)c3)C(=O)N2C1 [PP1633]	15.1 nM	0.6 nM	B (a compound having 3 or more and less than 10 is denoted as B)	A (a compound having 10 or more and less than 20 is denoted as A)
CCCN1C(=O)CN(C)C(=O)CN(C)C(=O)[C@H]([C@@H](C)CC)NC(=O)[C@H](CC(C)C)N(C)C(=O)C[C@@H](C(=O)N2CCOCC2)N(C)C(=O)[C@H](C2CCCC2)N(CC)C(=O)C2(CCC2)NC(=O)[C@@H]2CCCN2C(=O)[C@H](CCc2ccc(C(F)(F)F)c(Cl)c2)NC(=O)CN(C)C(=O)[C@@H]1Cc1ccc(C(F)(F)F)cc1 [PP1952] ([NMeL]I[Sar][Sar][NPrPhe(4-CF3)][Sar][hPhe(3-Cl-4-CF3)]P[Ac4c][X7][NMeD]-Morpholide; lactam N-11)	14 nM	0.13 nM	B (a compound having 3 or more and less than 10 is denoted as B)	B (a compound having 3 or more and less than 10 is denoted as B)
CCO[C@@H]1C[C@H]2C(=O)NC3(CC(F)(F)C3)C(=O)N(C)[C@@H](C3CCCC3)C(=O)N3CCC[C@@H]3CC(=O)N(C)[C@@H](CC)C(=O)N[C@@H]([C@@H](C)CC)C(=O)N(C)CC(=O)N(C)[C@H]3C/C=C\CCN(C3=O)[C@@H](Cc3ccc(C(F)(F)F)cc3)C(=O)N(C)CC(=O)N[C@@H](CCc3cc(F)c(C(F)(F)F)c(F)c3)C(=O)N2C1 [PP1609]	37 nM	0.2 nM	A (a compound having 10 or more and less than 20 is denoted as A)	A (a compound having 10 or more and less than 20 is denoted as A)
CC[C@H](C)[C@@H]1NC(=O)[C@H](CC)N(C)C(=O)C[C@@H](C(=O)N(C)C)N(C)C(=O)[C@H](C2CCCC2)N(C)C(=O)C2(CCC2)N(C)C(=O)[C@@H]2CCCN2C(=O)[C@H](CCc2cc(F)c(C(F)(F)F)c(F)c2)NC(=O)CN(C)C(=O)[C@H](Cc2ccc(C)cc2)N2CC/C=C\C[C@@H](C2=O)N(C)C(=O)[C@@H]2CCCN2C1=O [PP1786]	11.4 nM	0.14 nM	B (a compound having 3 or more and less than 10 is denoted as B)	A (a compound having 10 or more and less than 20 is denoted as A)
CCC[C@H]1C(=O)N[C@@H]([C@@H](C)CC)C(=O)N(C)CC(=O)N(C)[C@H]2C/C=C\CCN(C2=O)[C@@H](Cc2ccc(C)cc2)C(=O)N(C)CC(=O)N[C@@H](CCc2ccc(C(F)(F)F)c(OC)c2)C(=O)N2C[C@H](OCC)C[C@H]2C(=O)NC2(CCC2)C(=O)N(C)[C@@H](C2CCCC2)C(=O)N(C)[C@H](C(=O)N(C)C)CC(=O)N1C [PP1871]	13.1 nM	0.099 nM	A (a compound having 10 or more and less than 20 is denoted as A)	A (a compound having 10 or more and less than 20 is denoted as A)
CC[C@H](C)[C@@H]1NC(=O)[C@H](CCOC)N(C)C(=O)C[C@@H](C(=O)N(C)CC)N(C)C(=O)[C@H](C2CCCC2)N(C)C(=O)C2(CC(C)(C)C2)NC(=O)[C@@H]2C[C@H](C)CN2C(=O)[C@H](CCc2cc(F)c(C(F)(F)F)c(F)c2)NC(=O)CN(C)C(=O)[C@H](Cc2ccc(C(F)(F)F)cc2)N2CC/C=C\C[C@@H](C2=O)N(C)C(=O)CN(C)C1=O [PP1972]	13.2 nM	0.15 nM	A (a compound having 10 or more and less than 20 is denoted as A)	A (a compound having 10 or more and less than 20 is denoted as A)
CC[C@H](C)[C@@H]1NC(=O)[C@H](CC)N(C)C(=O)C[C@@H](C(=O)N(C)C)N(C)C(=O)[C@H](C2CCCC2)N(C)C(=O)C2(CCCC2)N(C)C(=O)[C@@H]2CCCN2C(=O)[C@H](CCc2cc(F)c(C(F)(F)F)c(F)c2)NC(=O)CN(C)C(=O)[C@H](Cc2ccc(C)cc2)N2CC/C=C\C[C@@H](C2=O)N(C)C(=O)[C@@H]2CCCN2C1=O [PP1811]	14.3 nM	0.23 nM	B (a compound having 3 or more and less than 10 is denoted as B)	A (a compound having 10 or more and less than 20 is denoted as A)
CC[C@H](C)[C@@H]1NC(=O)[C@H](CC)N(C)C(=O)C[C@@H](C(=O)N(C)C)N(C)C(=O)[C@H](C2CCCC2)N(C)C(=O)C2(CCCC2)N(C)C(=O)[C@@H]2C[C@@H](C)CN2C(=O)[C@H](CCc2cc(F)c(C(F)(F)F)c(F)c2)NC(=O)CN(C)C(=O)[C@H](Cc2ccc(C)cc2)N2CC/C=C\C[C@@H](C2=O)N(C)C(=O)[C@@H]2CCCN2C1=O [PP1814]	26.2 nM	0.27 nM	A (a compound having 10 or more and less than 20 is denoted as A)	A (a compound having 10 or more and less than 20 is denoted as A)
CC[C@H](C)[C@@H]1NC(=O)[C@H](CCOC)N(C)C(=O)C[C@@H](C(=O)N(C)CC)N(C)C(=O)[C@H](C2CCCC2)N(C)C(=O)C2(CC(C)(C)C2)NC(=O)[C@@H]2C[C@H](C)CN2C(=O)[C@H](CCc2ccc(C(F)(F)F)c(OC)c2)NC(=O)CN(C)C(=O)[C@H](Cc2ccc(C(F)(F)F)cc2)N2CC/C=C\C[C@@H](C2=O)N(C)C(=O)CN(C)C1=O [PP1999]	26.6 nM	0.13 nM	B (a compound having 3 or more and less than 10 is denoted as B)	A (a compound having 10 or more and less than 20 is denoted as A)

Compounds with a lower IC50 [1], results first:

IC50 [1]	Kd [4]	Compound	HRAS/KRAS (KD ratio) [2]	NRAS/KRAS (KD ratio) [3]
7.8 nM	0.15 nM	CC[C@H](C)[C@@H]1NC(=O)[C@H](CC2CC2)N(C)C(=O)C[C@@H](C(=O)N(C)C)N(C)C(=O)[C@H](C2CCCC2)N(C)C(=O)C2(CCC2)N(C)C(=O)[C@@H]2CCCN2C(=O)[C@H](CCc2cc(F)c(C(F)(F)F)c(F)c2)NC(=O)CN(C)C(=O)[C@H](Cc2ccc(C)cc2)N2CC/C=C\C[C@@H](C2=O)N(C)C(=O)[C@@H]2CCCN2C1=O [PP1798]	B (a compound having 3 or more and less than 10 is denoted as B)	A (a compound having 10 or more and less than 20 is denoted as A)
6.6 nM	0.14 nM	CCCN(C)C(=O)[C@@H]1CC(=O)N(C)[C@@H](CC(F)F)C(=O)N[C@@H]([C@@H](C)CC)C(=O)N(C)CC(=O)N(C)[C@H]2C/C=C\CCN(C2=O)[C@@H](Cc2ccc(C(F)(F)F)cc2)C(=O)N(C)CC(=O)N[C@@H](CCc2ccc(C(F)(F)F)c(OC)c2)C(=O)N2C[C@H](OCC)C[C@H]2C(=O)NC2(CC(C)(C)C2)C(=O)N(C)[C@@H](C2CCCC2)C(=O)N1C [PP2010]	B (a compound having 3 or more and less than 10 is denoted as B)	A (a compound having 10 or more and less than 20 is denoted as A)
6.2 nM	0.15 nM	CCO[C@@H]1C[C@H]2C(=O)NC3(CC(C)(C)C3)C(=O)N(C)[C@@H](C3CCCC3)C(=O)N(C)[C@H](C(=O)N(C)C)CC(=O)N(C)[C@@H](CC3CC3)C(=O)N[C@@H]([C@@H](C)CC)C(=O)N(C)CC(=O)N(C)[C@H]3C/C=C\CCN(C3=O)[C@@H](Cc3ccc(C(F)(F)F)cc3)C(=O)N(C)CC(=O)N[C@@H](CCc3cc(F)c(Cl)c(F)c3)C(=O)N2C1 [PP1759]	A (a compound having 10 or more and less than 20 is denoted as A)	A (a compound having 10 or more and less than 20 is denoted as A)
5.3 nM	0.13 nM	CCCOC[C@H]1C(=O)N[C@@H]([C@@H](C)CC)C(=O)N(C)CC(=O)N(C)[C@H]2C/C=C\CCN(C2=O)[C@@H](Cc2ccc(C(F)(F)F)cc2)C(=O)N(C)CC(=O)N[C@@H](CCc2cc(F)c(C(F)(F)F)c(F)c2)C(=O)N2C[C@H](OCC)C[C@H]2C(=O)NC2(CC(F)(F)C2)C(=O)N(C)[C@@H](C2CCCC2)C(=O)N(C)[C@H](C(=O)N(C)CCC)CC(=O)N1C [PP1744]	A (a compound having 10 or more and less than 20 is denoted as A)	A (a compound having 10 or more and less than 20 is denoted as A)
3.1 nM	0.066 nM	CCCN(C)C(=O)[C@@H]1CC(=O)N(C)[C@@H](CC2CC2)C(=O)N[C@@H]([C@@H](C)CC)C(=O)N(C)CC(=O)N(C)[C@H]2C/C=C\CCN(C2=O)[C@@H](Cc2ccc(C(F)(F)F)cc2)C(=O)N(C)CC(=O)N[C@@H](CCc2cc(F)c(C(F)(F)F)c(F)c2)C(=O)N2C[C@H](F)C[C@H]2C(=O)NC2(CC(C)(C)C2)C(=O)N(C)[C@@H](C2CCCC2)C(=O)N1C [PP1665]	A (a compound having 10 or more and less than 20 is denoted as A)	AA (a compound having 20 or more is denoted as AA)
2.4 nM	0.051 nM	CC[C@H](C)[C@@H]1NC(=O)[C@H](COC)N(C)C(=O)C[C@@H](C(=O)N(C)C)N(C)C(=O)[C@H](C2CCCC2)N(C)C(=O)C2(CC(C)(C)C2)NC(=O)[C@@H]2CC(F)(F)CN2C(=O)[C@H](CCc2cc(F)c(C(F)(F)F)c(F)c2)NC(=O)CN(C)C(=O)[C@H](Cc2ccc(C(F)(F)F)cc2)N2CC/C=C\C[C@@H](C2=O)N(C)C(=O)CN(C)C1=O [PP1717]	A (a compound having 10 or more and less than 20 is denoted as A)	A (a compound having 10 or more and less than 20 is denoted as A)
